System: HCT116 colorectal cancer cells
Assay: Cisplatin sensitization assay (96 h MTS cell viability);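 further: compound concentration needed to lower the IC50 of Cisplatin alone by a set fold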
Type: cell-based
Conditions: Cisplatin sensitization value
Summary of the method: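 The MTS viability read, after 1 h with reagent, followed 96 h of co-treatment at 37° C. in 5% CO2. Both compound and cisplatin were titrated 2-fold from a 10 μM top final concentration in a complete concentration matrix on HCT116 cells. Scores +++/++/+ reflect cisplatin sensitization value ranges.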

Row | SMILES | Cisplatin Sensitization Assay
1 | CO[C@H]1CCN(C(=O)C2CCN(c3ccncc3NC(=O)c3c(N)nn4cc(F)cnc34)CC2)C1 [I-G-94, (S)-2-amino-6-fluoro-N-(4-(4-(3-methoxypyrrolidine-1-carbonyl)piperidin-1-yl)pyridin-3-yl)pyrazolo[1,5-a]pyrimidine-3-carboxamide] | +++ (Compounds with a Cisplatin sensitization value of <0.02 μM are marked with “+++.”)
2 | C[N+]1([O-])CCN(C(=O)C2CCN(c3c(F)cncc3NC(=O)c3c(N)nn4cc(F)cnc34)CC2)CC1 [I-G-95, 4-(1-(3-(2-amino-6-fluoropyrazolo[1,5-a]pyrimidine-3-carboxamido)-5-fluoropyridin-4-yl)piperidine-4-carbonyl)-1-methylpiperazine 1-oxide] | +++ (Compounds with a Cisplatin sensitization value of <0.02 μM are marked with “+++.”)
3 | CN1CC(N2CCN(C(=O)C3CCN(c4c(F)cncc4NC(=O)c4c(N)nn5cc(F)cnc45)CC3)CC2)C1 [I-G-96, 2-amino-6-fluoro-N-(5-fluoro-4-(4-(4-(1-methylazetidin-3-yl)piperazine-1-carbonyl)piperidin-1-yl)pyridin-3-yl)pyrazolo[1,5-a]pyrimidine-3-carboxamide] | +++ (Compounds with a Cisplatin sensitization value of <0.02 μM are marked with “+++.”)
4 | COCC1CN(C(=O)C2CCN(c3c(F)cncc3NC(=O)c3c(N)nn4cc(F)cnc34)CC2)C1 [I-G-98, 2-amino-6-fluoro-N-(5-fluoro-4-(4-(3-(methoxymethyl)azetidine-1-carbonyl)piperidin-1-yl)pyridin-3-yl)pyrazolo[1,5-a]pyrimidine-3-carboxamide] | +++ (Compounds with a Cisplatin sensitization value of <0.02 μM are marked with “+++.”)
5 | CO[C@H]1CCN(C(=O)C2CCN(c3c(F)cncc3NC(=O)c3c(N)nn4cc(F)cnc34)CC2)C1 [I-G-99, (S)-2-amino-6-fluoro-N-(5-fluoro-4-(4-(3-methoxypyrrolidine-1-carbonyl)piperidin-1-yl)pyridin-3-yl)pyrazolo[1,5-a]pyrimidine-3-carboxamide] | +++ (Compounds with a Cisplatin sensitization value of <0.02 μM are marked with “+++.”)
6 | Nc1nn2cc(F)cnc2c1C(=O)Nc1cnccc1N1CCN(C2COC2)CC1 [I-N-1, 2-amino-6-fluoro-N-(4-(4-(oxetan-3-yl)piperazin-1-yl)pyridin-3-yl)pyrazolo[1,5-a]pyrimidine-3-carboxamide] | ++ (Compounds with a Cisplatin sensitization value >0.02 μM but <0.2 μM are marked with “++.”)
7 | N#CCc1cnc2c(C(=O)Nc3cnccc3N3CCC(N)CC3)c(N)nn2c1 [I-N-2, 2-amino-N-(4-(4-aminopiperidin-1-yl)pyridin-3-yl)-6-(cyanomethyl)pyrazolo[1,5-a]pyrimidine-3-carboxamide] | +++ (Compounds with a Cisplatin sensitization value of <0.02 μM are marked with “+++.”)
8 | CN1CCN(c2ccncc2NC(=O)c2c(N)nn3cc(F)cnc23)CC1 [I-N-3, 2-amino-6-fluoro-N-(4-(4-methylpiperazin-1-yl)pyridin-3-yl)pyrazolo[1,5-a]pyrimidine-3-carboxamide] | +++ (Compounds with a Cisplatin sensitization value of <0.02 μM are marked with “+++.”)
9 | CC(C)N1CCN(c2ccncc2NC(=O)c2c(N)nn3cc(F)cnc23)CC1 [I-N-4, 2-amino-6-fluoro-N-(4-(4-isopropylpiperazin-1-yl)pyridin-3-yl)pyrazolo[1,5-a]pyrimidine-3-carboxamide] | +++ (Compounds with a Cisplatin sensitization value of <0.02 μM are marked with “+++.”)
10 | CN1CCN(c2c(NC(=O)c3c(N)nn4cc(F)cnc34)cncc2C2CC2)CC1 [I-N-5, 2-amino-N-(5-cyclopropyl-4-(4-methylpiperazin-1-yl)pyridin-3-yl)-6-fluoropyrazolo[1,5-a]pyrimidine-3-carboxamide] | ++ (Compounds with a Cisplatin sensitization value >0.02 μM but <0.2 μM are marked with “++.”)
11 | Nc1nn2cc(F)cnc2c1C(=O)Nc1cnccc1-n1ccnc1 [I-N-7, N-(4-(1H-imidazol-1-yl)pyridin-3-yl)-2-amino-6-fluoropyrazolo[1,5-a]pyrimidine-3-carboxamide] | ++ (Compounds with a Cisplatin sensitization value >0.02 μM but <0.2 μM are marked with “++.”)
12 | CNCCc1cnn(-c2ccncc2NC(=O)c2c(N)nn3cc(F)cnc23)c1 [I-N-8, 2-amino-6-fluoro-N-(4-(4-(2-(methylamino)ethyl)-1H-pyrazol-1-yl)pyridin-3-yl)pyrazolo[1,5-a]pyrimidine-3-carboxamide] | + (Compounds with a Cisplatin sensitization value >0.2 μM but <5 μM are marked with “+.”)
13 | CN(C)CCc1cnn(-c2ccncc2NC(=O)c2c(N)nn3cc(F)cnc23)c1 [I-N-9, 2-amino-N-(4-(4-(2-(dimethylamino)ethyl)-1H-pyrazol-1-yl)pyridin-3-yl)-6-fluoropyrazolo[1,5-a]pyrimidine-3-carboxamide] | + (Compounds with a Cisplatin sensitization value >0.2 μM but <5 μM are marked with “+.”)
14 | Nc1nn2cc(F)cnc2c1C(=O)Nc1cnccc1N1CCN([C@@H]2CCOC2)CC1 [I-N-10, (R)-2-amino-6-fluoro-N-(4-(4-(tetrahydrofuran-3-yl)piperazin-1-yl)pyridin-3-yl)pyrazolo[1,5-a]pyrimidine-3-carboxamide] | ++ (Compounds with a Cisplatin sensitization value >0.02 μM but <0.2 μM are marked with “++.”)
15 | Nc1nn2cc(F)cnc2c1C(=O)Nc1cnccc1N1CCN(C2CCOCC2)CC1 [I-N-11, 2-amino-6-fluoro-N-(4-(4-(tetrahydro-2H-pyran-4-yl)piperazin-1-yl)pyridin-3-yl)pyrazolo[1,5-a]pyrimidine-3-carboxamide] | ++ (Compounds with a Cisplatin sensitization value >0.02 μM but <0.2 μM are marked with “++.”)
16 | Nc1nn2cc(F)cnc2c1C(=O)Nc1cnccc1N1CCN([C@H]2CCOC2)CC1 [I-N-12, (S)-2-amino-6-fluoro-N-(4-(4-(tetrahydrofuran-3-yl)piperazin-1-yl)pyridin-3-yl)pyrazolo[1,5-a]pyrimidine-3-carboxamide] | +++ (Compounds with a Cisplatin sensitization value of <0.02 μM are marked with “+++.”)
17 | Nc1nn2cc(F)cnc2c1C(=O)Nc1cncc(F)c1N1CCN(C2COC2)CC1 [I-N-13, 2-amino-6-fluoro-N-(5-fluoro-4-(4-(oxetan-3-yl)piperazin-1-yl)pyridin-3-yl)pyrazolo[1,5-a]pyrimidine-3-carboxamide] | +++ (Compounds with a Cisplatin sensitization value of <0.02 μM are marked with “+++.”)
18 | CN1CCN(c2c(F)cncc2NC(=O)c2c(N)nn3cc(Cl)cnc23)CC1 [I-N-14, 2-amino-6-chloro-N-(5-fluoro-4-(4-methylpiperazin-1-yl)pyridin-3-yl)pyrazolo[1,5-a]pyrimidine-3-carboxamide] | +++ (Compounds with a Cisplatin sensitization value of <0.02 μM are marked with “+++.”)
19 | CN1CCN(c2c(F)cncc2NC(=O)c2c(N)nn3cc(F)cnc23)CC1 [I-N-15, 2-amino-6-fluoro-N-(5-fluoro-4-(4-methylpiperazin-1-yl)pyridin-3-yl)pyrazolo[1,5-a]pyrimidine-3-carboxamide] | +++ (Compounds with a Cisplatin sensitization value of <0.02 μM are marked with “+++.”)
20 | Cc1cncc(NC(=O)c2c(N)nn3cc(F)cnc23)c1N1CCN(C2COC2)CC1 [I-N-16, 2-amino-6-fluoro-N-(5-methyl-4-(4-(oxetan-3-yl)piperazin-1-yl)pyridin-3-yl)pyrazolo[1,5-a]pyrimidine-3-carboxamide] | +++ (Compounds with a Cisplatin sensitization value of <0.02 μM are marked with “+++.”)
21 | CCN1CCN(c2ccncc2NC(=O)c2c(N)nn3cc(F)cnc23)CC1 [I-N-17, 2-amino-N-(4-(4-ethylpiperazin-1-yl)pyridin-3-yl)-6-fluoropyrazolo[1,5-a]pyrimidine-3-carboxamide] | +++ (Compounds with a Cisplatin sensitization value of <0.02 μM are marked with “+++.”)
22 | Nc1nn2cc(F)cnc2c1C(=O)Nc1cnccc1N1CCN2CCC1CC2 [I-N-18, N-(4-(1,4-diazabicyclo[3.2.2]nonan-4-yl)pyridin-3-yl)-2-amino-6-fluoropyrazolo[1,5-a]pyrimidine-3-carboxamide] | ++ (Compounds with a Cisplatin sensitization value >0.02 μM but <0.2 μM are marked with “++.”)
23 | Nc1nn2cc(F)cnc2c1C(=O)Nc1cnccc1N1CCN(CC(F)(F)F)CC1 [I-N-20, 2-amino-6-fluoro-N-(4-(4-(2,2,2-trifluoroethyl)piperazin-1-yl)pyridin-3-yl)pyrazolo[1,5-a]pyrimidine-3-carboxamide] | +++ (Compounds with a Cisplatin sensitization value of <0.02 μM are marked with “+++.”)
24 | Nc1nn2cc(F)cnc2c1C(=O)Nc1cnccc1N1CCN2CCC[C@H]2C1 [I-N-21, (S)-2-amino-6-fluoro-N-(4-(hexahydropyrrolo[1,2-a]pyrazin-2(1H)-yl)pyridin-3-yl)pyrazolo[1,5-a]pyrimidine-3-carboxamide] | +++ (Compounds with a Cisplatin sensitization value of <0.02 μM are marked with “+++.”)
25 | C[C@H]1CN(C2COC2)CCN1c1ccncc1NC(=O)c1c(N)nn2cc(F)cnc12 [I-N-24, (S)-2-amino-6-fluoro-N-(4-(2-methyl-4-(oxetan-3-yl)piperazin-1-yl)pyridin-3-yl)pyrazolo[1,5-a]pyrimidine-3-carboxamide] | +++ (Compounds with a Cisplatin sensitization value of <0.02 μM are marked with “+++.”)
26 | Nc1nn2cc(F)cnc2c1C(=O)Nc1cnccc1-n1cccn1 [I-N-26, N-(4-(1H-pyrazol-1-yl)pyridin-3-yl)-2-amino-6-fluoropyrazolo[1,5-a]pyrimidine-3-carboxamide] | + (Compounds with a Cisplatin sensitization value >0.2 μM but <5 μM are marked with “+.”)
27 | Nc1nn2cc(F)cnc2c1C(=O)Nc1cnccc1-n1cnc(C(F)(F)F)c1 [I-N-27, 2-amino-6-fluoro-N-(4-(4-(trifluoromethyl)-1H-imidazol-1-yl)pyridin-3-yl)pyrazolo[1,5-a]pyrimidine-3-carboxamide] | ++ (Compounds with a Cisplatin sensitization value >0.02 μM but <0.2 μM are marked with “++.”)
